No end group written: not given here.
Columns and labels:
[1] = test system: DCIP-expressing leaves (intact); assay: DCIP in attached, intact leaves incubated in situ; type: cell-based, Nicotiana benthamiana
Protocol: We next confirmed that DCIP is capable of detecting successful delivery in attached, intact leaves instead of leaf discs. DCIP-expressing leaves were thus infiltrated with 100 μM R9-GFP11 solutions and allowed to incubate in situ. During this time, the infiltrated liquid would dry, rendering the effective treatment concentration difficult to compare to the above leaf disc assays. We then assessed the amount of sfGFP complementation at 4 or 24 h post infiltration with 100 μM R9-GFP11 (Fig. 4a). […] We also tested whether or not 24 h-treated cells were still competent to R9-mediated delivery; we retreated a previously 24H treated leaf with 100 μM R9-GFP11, and imaged 4 h post re-treatment. […] The limited fluorescence recovery with re-treatment could be due to an induced stress response that decreases the cell wall permeability.
Three days after agroinfiltration, DCIP-expressing leaves were infiltrated with the treatment solutions. Unless otherwise stated, an 8 mm punch was then excised from the infiltrated area and plated, abaxial side up, onto ½ MS pH 5.7 agar plates. The plates were then left to incubate under ambient conditions for 4–5 h before imaging. For cold temperature treatment, after infiltration with ice-cold solutions of R9-GFP11 and disc excision, the leaf discs were plated onto ice-cold agar and immediately transferred to a 4 °C refrigerator for incubation. After incubation, the agar plates with leaf discs were kept on ice until the moment of imaging. For in situ incubation, leaves were simply infiltrated and the plant was returned to the growing chamber for incubation. […]
Excised leaf discs were imaged on a Zeiss LSM880 laser scanning confocal microscope. Images for semi-quantitative analysis were collected using a ×20/1.0NA Plan-apochromat water immersion objective and larger field-of-views were collected using a ×5 objective. […] For quantification experiments, z-stacks were acquired with the imaging depth set to capture the epidermal layer down to the point where mCherry nuclei could no longer be detected. z-stacks from four fields of view were acquired for every treatment condition. Quantitative image analysis and downstream processing was performed using Cell Profiler 3.0. […] Cell Profiler was then used to quantify the number, mCherry intensity, GFP intensity, and red (mCherry)/green (sfGFP) ratio of the projected nuclei.
Data obtained from Cell Profiler was processed using a script written in Python 3.9. Using the Cell Profiler data, GFP positive nuclei were counted using a Python script by setting a threshold defined as a one-tailed 99% confidence interval above the mean green/red ratio in the untreated control or water infiltration control of each experiment. […]

[2] = R9-GFP11 dot blot assay (anti-GFP11) of leaf lysates, tissue stability; type: in vivo, Nicotiana benthamiana; conditions: 500 μM in water infiltrated, in situ, 0, 4, 8, 24 h; 12 mm disc lysed in RIPA, dot blot anti-GFP11, N = 6
Protocol: We infiltrated leaves with 500 μM R9-GFP11 and left the plants to incubate in situ. A higher concentration of R9-GFP11 was chosen to facilitate detection by immunoblotting. After 0, 4, 8, and 24 h of incubation, a single 12 mm leaf disc was harvested and lysed for each treatment. Two microliters of lysates were then spotted onto nitrocellulose for dot blot analysis[42] using a primary antibody raised against GFP11. […] The reduction at 24 h in the sfGFP signal is indicative of the combined intracellular and extracellular turnover of GFP11 becoming higher than the rate of delivery and complementation. […] We hypothesize that similar dynamics from apoplastic proteases[45] and intracellular degradation are at play in plants.
The third or fourth leaf of 4–5-week-old wild-type N. benthamiana was infiltrated with 500 μM R9-GFP11 in water using a needless syringe. Infiltrations were staggered such that all treatments could be harvested simultaneously for 0, 4, 8, and 24 h time points. Each treatment was performed on a separate plant and the experiment was repeated thrice. A 12 mm leaf disc was excised for each treatment using a leaf punch and flash frozen in liquid nitrogen before grinding and lysis in 20 μL RIPA buffer with 1x plant protease inhibitor cocktail (Sigma-Aldrich: P9599). The lysates were then clarified by centrifugation at 21,000 × g for 30 min. […]

Q: What does the source list for “RRRRRRRRRGSGSRDHMVLHEYVNAAGIT [R9-GFP11]”?
A: time to disappearance of GFP complementation (DCIP) signal ([1]; 100 μM, intact leaves in situ): ≤ 24 h; percentage of sfGFP positive cells, 4 h post infiltration ([1]; 100 μM, intact leaves in situ, N = 5): relatively high percentage of sfGFP positive cells; percentage of sfGFP-positive cells, 24 h post infiltration ([1]; 100 μM, intact leaves in situ, N = 5, not statistically different from non-treated control): returned nearly to baseline; delivery after re-treatment of a 24 h treated leaf ([1]; re-treated with 100 μM, imaged 4 h post re-treatment): some instances of successful delivery; time until recovered/tissue-localized peptide returns to level of non-treated control (clearance from leaf tissue) [2]: ≤ 24 h

Source: article PMC10423278, “Delivered complementation in planta (DCIP) enables measurement of peptide-mediated protein delivery efficiency in plants” (Communications Biology, 2023)
